Source: patent publication US20250230193A1, “CYCLIC COMPOUND HAVING SELECTIVE KRAS INHIBITORY EFFECT ON HRAS AND NRAS” (CHUGAI SEIYAKU KABUSHIKI KAISHA, priority 2022, published 2025)
*1 amine or outer side, *2 acyl side, *3 side chain or, on linkers, in order; H or OH if unused. Where a SMILES comes first, the peptide text is derived from it. Bridges are numbered along the chain shown (N, C = ends). [ ]: non-standard residue; d: D form. The star is where a group is joined. hPhe(3,5-F2-4-CF3) = N[C@@H](CCc1cc(F)c(C(F)(F)F)c(F)c1)C(=O)O; hPhe(3-Cl-4-CF3) = N[C@@H](CCc1ccc(C(F)(F)F)c(Cl)c1)C(=O)O; NPrPhe(4-CF3) = CCCN[C@@H](Cc1ccc(C(F)(F)F)cc1)C(=O)O; X48 = C=CCCN([C@@H](Cc1ccc(C)cc1)C(=O)[*:2])[*:1]; NMeGly(cPent) = CN[C@H](C(=O)O)C1CCCC1; NMeD = CN[C@@H](CC(=O)O)C(=O)O; NMeL = CN[C@@H](CC(C)C)C(=O)O; αMeS = C[C@](N)(CO)C(=O)O; Morpholide = C1CN(*)CCO1; NMeA = CN[C@@H](C)C(=O)O; Ac5c = NC1(C(=O)O)CCCC1; Aze = O=C(O)[C@@H]1CCN1; Sar = CNCC(=O)O; Allyl = C=CC*

Key:
[1] = biological target: GDP-bound HRAS wild-type protein (Homo sapiens, UniProt P01112); assay: Binding to HRAS by surface plasmon resonance (SPR), Single Cycle Kinetics; settings: SPR; for HRAS/KRAS (ratio of KD value for HRAS to KD value for KRAS): GDP-bound HRAS wild-type vs GDP-bound KRAS wild-type
[2] = biological target: GDP-bound NRAS wild-type protein (Homo sapiens, UniProt P01111); assay: Binding to NRAS by surface plasmon resonance (SPR), Single Cycle Kinetics; settings: SPR; for NRAS/KRAS (ratio of KD value for NRAS to KD value for KRAS): GDP-bound NRAS wild-type vs GDP-bound KRAS wild-type
Chain of GDP-bound NRAS wild-type protein (P01111 whole entry): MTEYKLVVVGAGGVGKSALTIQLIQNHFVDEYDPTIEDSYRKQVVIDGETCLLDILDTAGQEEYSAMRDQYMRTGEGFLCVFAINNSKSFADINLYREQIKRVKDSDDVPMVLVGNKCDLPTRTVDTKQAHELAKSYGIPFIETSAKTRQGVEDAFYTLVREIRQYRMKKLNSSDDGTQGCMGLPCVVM

Chain of GDP-bound HRAS wild-type protein (P01112 whole entry): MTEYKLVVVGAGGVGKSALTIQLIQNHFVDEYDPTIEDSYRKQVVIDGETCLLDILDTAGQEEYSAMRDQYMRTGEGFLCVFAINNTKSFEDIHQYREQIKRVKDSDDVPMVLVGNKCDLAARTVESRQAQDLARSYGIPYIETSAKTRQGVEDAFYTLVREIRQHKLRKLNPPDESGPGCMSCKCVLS

| SMILES | HRAS/KRAS (ratio of KD value for HRAS to KD value for KRAS) [1] | NRAS/KRAS (ratio of KD value for NRAS to KD value for KRAS) [2] | HRAS/KRAS (ratio of KD value with respect to GDP-bound HRAS wild-type protein to KD value with respect to KRAS) ([1]; KD ratio HRAS/KRAS) | NRAS/KRAS (ratio of KD value with respect to GDP-bound NRAS wild-type protein to KD value with respect to KRAS) ([2]; KD ratio NRAS/KRAS) | other results |
| --- | --- | --- | --- | --- | --- |
| CC[C@H](C)[C@@H]1NC(=O)[C@H](CC2CC2)N(C)C(=O)C[C@@H](C(=O)N(C)C)N(C)C(=O)[C@H](C2CCCC2)N(C)C(=O)C2(CCC2)N(C)C(=O)[C@@H]2C[C@@H](C)CN2C(=O)[C@H](CCc2cc(F)c(C(F)(F)F)c(F)c2)NC(=O)CN(C)C(=O)[C@H](Cc2ccc(C)cc2)N2CC/C=C\C[C@@H](C2=O)N(C)C(=O)[C@@H]2CCCN2C1=O [PP1801] | B (a compound having 3 or more and less than 10 is denoted as B) | A (a compound having 10 or more and less than 20 is denoted as A) |  |  |  |
| CCO[C@@H]1C[C@H]2C(=O)NC3(CC(C)(C)C3)C(=O)N(C)[C@@H](C3CCCC3)C(=O)N(C)[C@H](C(=O)N(C)C)CC(=O)N(C)[C@@H](CC3CC3)C(=O)N[C@@H]([C@@H](C)CC)C(=O)N(C)CC(=O)N(C)[C@H]3C/C=C\CCN(C3=O)[C@@H](Cc3ccc(C)cc3)C(=O)N(C)CC(=O)N[C@@H](CCc3ccc(C(F)(F)F)c(OC)c3)C(=O)N2C1 [PP1903] | B (a compound having 3 or more and less than 10 is denoted as B) | A (a compound having 10 or more and less than 20 is denoted as A) |  |  |  |
| C=CCCN1C(=O)[C@@H]2CCN2C(=O)[C@H](C)N(C)C(=O)[C@H]([C@@H](C)CC)NC(=O)[C@H](CC(C)C)N(C)C(=O)C[C@@H](C(=O)N2CCOCC2)N(C)C(=O)[C@H](C2CCCC2)N(C)C(=O)C2(CCCC2)NC(=O)[C@@H]2CCCN2C(=O)[C@H](CCc2ccc(C(F)(F)F)c(Cl)c2)NC(=O)CN(C)C(=O)[C@@H]1Cc1ccc(C)cc1 [PP0089] ([NMeL]I[NMeA][Aze][X48][Sar][hPhe(3-Cl-4-CF3)]P[Ac5c][NMeGly(cPent)][NMeD]-Morpholide; lactam N-11) |  |  |  |  | HRAS/KRAS (ratio of KD for GDP-bound HRAS wild-type to KD for KRAS) ([1]; KD ratio HRAS/KRAS): B (a compound having 3 or more and less than 10 is denoted as B); NRAS/KRAS (ratio of KD for GDP-bound NRAS wild-type to KD for KRAS) ([2]; KD ratio NRAS/KRAS): C (A compound having a KD ratio of 0.1 or more and less than 3 is denoted as C) |
| C=CCOC[C@]1(C)NC(=O)[C@@H]2CCCN2C(=O)[C@H](CCc2cc(F)c(C(F)(F)F)c(F)c2)NC(=O)CN(C)C(=O)[C@H](Cc2ccc(C(F)(F)F)cc2)N(CCC)C(=O)[C@@H]2CCN2C(=O)CN(C)C(=O)[C@H]([C@@H](C)CC)NC(=O)[C@H](CC(C)C)N(C)C(=O)C[C@@H](C(=O)N2CCOCC2)N(C)C(=O)[C@H](C2CCCC2)N(C)C1=O [PP0799] ([NMeL]I[Sar][Aze][NPrPhe(4-CF3)][Sar][hPhe(3,5-F2-4-CF3)]P[αMeS](Allyl)[NMeGly(cPent)][NMeD]-Morpholide; lactam N-11) |  |  | B (a compound having 3 or more and less than 10 is denoted as B) | C (A compound having a KD ratio of 0.1 or more and less than 3 is denoted as C) |  |
| CC[C@H](C)[C@@H]1NC(=O)[C@H](CC(C)C)N(CC)C(=O)C[C@@H](C(=O)N2CCOCC2)N(C)C(=O)[C@H](C2CCCC2)N(C)C(=O)C2(CCCC2)NC(=O)[C@@H]2CCCN2C(=O)[C@H](CCc2cc(F)c(C(F)(F)F)c(F)c2)NC(=O)CN(C)C(=O)[C@H](Cc2ccc(C(F)(F)F)cc2)N2CCCC[C@@H](C2=O)N(C)C(=O)CN(C)C1=O [PP0588] |  |  | B (a compound having 3 or more and less than 10 is denoted as B) | B (a compound having 3 or more and less than 10 is denoted as B) |  |
| CCO[C@@H]1C[C@H]2C(=O)NC3(CCC3)C(=O)N(C)[C@@H](C3CCCC3)C(=O)N(C)[C@H](C(=O)N(C)CC)CC(=O)N(C)[C@H]3CCCC/C=C/c4ccc(cc4)C[C@@H](C(=O)N(C)CC(=O)N[C@@H](CCc4cc(F)c(C(F)(F)F)c(F)c4)C(=O)N2C1)N1CC/C=C\C[C@@H](C1=O)N(C)C(=O)CN(C)C(=O)[C@H]([C@@H](C)CC)NC3=O [PP1827, (1S,7S,11R,13S,19S,22S,26S,29S,35S,37Z,47E)-19-cyclopentyl-7-[2-[3,5-difluoro-4-(trifluoromethyl)phenyl]ethyl]-11-ethoxy-N-ethyl-N,3,18,21,25,31,34-heptamethyl-29-[(1S)-1-methylpropyl]-2,5,8,14,17,20,24,27,30,33,55-undecaoxo-spiro[3,6,9,15,18,21,25,28,31,34,41-undecazapentacyclo[24.15.11.2^43,46.1^35,41.0^9,13]pentapentaconta-37,43(54),44,46(53),47-pentaene-16,1′-cyclobutane]-22-carboxamide] | A (a compound having 10 or more and less than 20 is denoted as A) | A (a compound having 10 or more and less than 20 is denoted as A) |  |  |  |
| CCO[C@@H]1C[C@H]2C(=O)NC3(CCC3)C(=O)N(C)[C@@H](C3CCCC3)C(=O)N(C)[C@H](C(=O)N(C)C)CC(=O)N(C)[C@@H](CC(C)C)C(=O)N[C@@H]([C@@H](C)CC)C(=O)N(C)CC(=O)N(C)[C@H]3CCCCN(C3=O)[C@@H](Cc3ccc(C(F)(F)F)cc3)C(=O)N(C)CC(=O)N[C@@H](CCc3cc(F)c(C(F)(F)F)c(F)c3)C(=O)N2C1 [PP0580] |  |  | C (A compound having a KD ratio of 0.1 or more and less than 3 is denoted as C) | C (A compound having a KD ratio of 0.1 or more and less than 3 is denoted as C) |  |
